ChEMBL document CHEMBL1201862, “PubChem BioAssay data set” (2004)
Active and inactive are the calls of the source.

Tests used:
[1] = target: T1, Fatty acid synthase (Homo sapiens, UniProt P49327); assay: FAS thioesterase domain inhibitors, dose response, biochemical, endpoint fluorescence intensity, uHTS hits (AID 624327); format: functional;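 also: fluorescence from hydrolysis of an O-methyl fluorescein acyl ester substrate by the enzyme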
[2] = target: Genome polyprotein (dengue virus type 2, UniProt P29990); assay: Dengue-2 NS5 methyltransferase inhibitors, primary screen, biochemical, confirmation dose response (AID 588689); format: functional
[3] = target: T1, Fatty acid synthase; assay: FAS thioesterase domain inhibitors, dose response, biochemical, kinetic fluorescence intensity (AID 624326); format: functional;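 also: rate of fluorescence rise from hydrolysis of a fluorogenic O-methyl fluorescein ester substrate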
[4] = target: T2, High affinity choline transporter 1 (Homo sapiens, UniProt Q9GZV3); assay: CHT inhibitors, dose response, cell-based, 5-point CRC, membrane potential dye (AID 504840); format: functional
T2 sequence (Q9GZV3 whole entry): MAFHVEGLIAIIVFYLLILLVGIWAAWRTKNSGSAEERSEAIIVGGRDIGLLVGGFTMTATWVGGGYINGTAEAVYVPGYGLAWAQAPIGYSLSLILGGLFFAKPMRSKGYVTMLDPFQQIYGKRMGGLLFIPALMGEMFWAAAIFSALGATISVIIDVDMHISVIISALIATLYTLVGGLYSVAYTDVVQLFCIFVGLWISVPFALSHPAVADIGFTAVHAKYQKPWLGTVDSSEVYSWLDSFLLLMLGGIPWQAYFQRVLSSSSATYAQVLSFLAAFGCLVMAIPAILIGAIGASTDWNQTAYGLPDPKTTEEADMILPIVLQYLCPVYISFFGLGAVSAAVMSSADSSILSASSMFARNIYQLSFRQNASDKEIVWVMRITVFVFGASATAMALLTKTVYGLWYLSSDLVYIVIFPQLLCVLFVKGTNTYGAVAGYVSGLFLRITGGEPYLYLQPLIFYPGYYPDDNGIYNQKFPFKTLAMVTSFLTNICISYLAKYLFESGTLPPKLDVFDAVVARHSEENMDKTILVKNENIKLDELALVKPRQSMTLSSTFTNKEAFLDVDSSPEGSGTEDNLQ

[5] = cytotoxicity toward NIH3T3 fibroblasts, dose response, counter-screen, cell-based, ATP luminescence, mouse fibroblasts (AID 2010); format: functional;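 also: cells exposed to compound for about 90 hours before reading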
[6] = THP-1 cell cytotoxicity, dose response, cytotoxicity control for Vif-APOBEC3G degradation inhibitor project, THP-1 cells (AID 1117359); format: functional; details: Human immunodeficiency virus 1, THP-1
[7] = target: T3, Kappa-type opioid receptor (Homo sapiens, UniProt P41145); format: functional
[8] = tested on: CHO; assay: cytotoxicity in TLR9-MyD88 CHO cells, dose response, cytotoxicity control for TLR9-MyD88 binding inhibitor project, cell-based, luminescence (AID 588339); format: functional, hamster; details: Cricetulus griseus;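 also: CHO cells stably coexpressing TLR9 and MyD88 fusions from primary screen; compound exposure lasted 48 hours before viability readout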
[9] = target: Beta Lactamase (Pseudomonas aeruginosa, UniProt Q932Y6); assay: beta-lactamase reporter inhibitor potency, dose response, artefact control for TLR9-MyD88 binding inhibitor project, BLA reporter cells, FRET fluorescence (AID 588341); format: cell-based;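 also: cell based assay in CHO-K1 cells stably expressing beta-lactamase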
[10] = target: T3, Kappa-type opioid receptor; format: functional; remark: listed apart in the source
[11] = target: T4, Rac GTPase-activating protein 1 (Homo sapiens, UniProt Q9H0H5); assay: MgcRacGAP GTPase-activating activity inhibitors, confirmation, biochemical, ADP Hunter fluorescence, primary and confirmatory (AID 624330); format: functional
T4 sequence (Q9H0H5 whole entry): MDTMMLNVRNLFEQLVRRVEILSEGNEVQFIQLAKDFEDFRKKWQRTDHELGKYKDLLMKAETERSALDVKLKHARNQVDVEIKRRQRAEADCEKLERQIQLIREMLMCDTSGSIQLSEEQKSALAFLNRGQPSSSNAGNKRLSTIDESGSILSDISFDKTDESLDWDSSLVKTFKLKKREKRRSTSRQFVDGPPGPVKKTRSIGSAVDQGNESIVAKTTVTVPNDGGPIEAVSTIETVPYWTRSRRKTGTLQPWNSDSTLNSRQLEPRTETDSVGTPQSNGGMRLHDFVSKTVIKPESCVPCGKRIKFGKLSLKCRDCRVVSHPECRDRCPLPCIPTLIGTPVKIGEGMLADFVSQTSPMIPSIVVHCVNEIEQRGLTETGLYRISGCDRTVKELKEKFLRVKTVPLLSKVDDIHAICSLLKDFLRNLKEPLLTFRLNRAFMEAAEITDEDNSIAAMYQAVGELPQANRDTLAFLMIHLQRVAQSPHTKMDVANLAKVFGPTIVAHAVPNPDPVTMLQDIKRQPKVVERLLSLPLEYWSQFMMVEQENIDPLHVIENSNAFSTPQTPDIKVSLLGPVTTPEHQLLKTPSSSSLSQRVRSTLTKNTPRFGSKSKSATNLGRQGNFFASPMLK

[12] = target: Dual specificity protein phosphatase 3 (Homo sapiens, UniProt P51452); assay: VHR phosphatase inhibition, dose response, selectivity assay for STEP inhibitor project, biochemical (AID 602374); format: functional; details: read-out: IC50_Mean
[13] = target: Small ubiquitin-related modifier 1 (Homo sapiens, UniProt P63165); assay: inhibitors of SUMO1 peptide binding, dose response, biochemical, fluorescence polarization, uHTS hits (AID 624382); format: functional; details: read-out: IC50_Mean
[14] = target: T5, Tyrosine-protein phosphatase non-receptor type 22 (Homo sapiens, UniProt Q9Y2R2); assay: PTPN22 phosphatase inhibition, dose response, selectivity assay for STEP inhibitor project, biochemical (AID 624241); format: functional
T5 sequence (Q9Y2R2 whole entry): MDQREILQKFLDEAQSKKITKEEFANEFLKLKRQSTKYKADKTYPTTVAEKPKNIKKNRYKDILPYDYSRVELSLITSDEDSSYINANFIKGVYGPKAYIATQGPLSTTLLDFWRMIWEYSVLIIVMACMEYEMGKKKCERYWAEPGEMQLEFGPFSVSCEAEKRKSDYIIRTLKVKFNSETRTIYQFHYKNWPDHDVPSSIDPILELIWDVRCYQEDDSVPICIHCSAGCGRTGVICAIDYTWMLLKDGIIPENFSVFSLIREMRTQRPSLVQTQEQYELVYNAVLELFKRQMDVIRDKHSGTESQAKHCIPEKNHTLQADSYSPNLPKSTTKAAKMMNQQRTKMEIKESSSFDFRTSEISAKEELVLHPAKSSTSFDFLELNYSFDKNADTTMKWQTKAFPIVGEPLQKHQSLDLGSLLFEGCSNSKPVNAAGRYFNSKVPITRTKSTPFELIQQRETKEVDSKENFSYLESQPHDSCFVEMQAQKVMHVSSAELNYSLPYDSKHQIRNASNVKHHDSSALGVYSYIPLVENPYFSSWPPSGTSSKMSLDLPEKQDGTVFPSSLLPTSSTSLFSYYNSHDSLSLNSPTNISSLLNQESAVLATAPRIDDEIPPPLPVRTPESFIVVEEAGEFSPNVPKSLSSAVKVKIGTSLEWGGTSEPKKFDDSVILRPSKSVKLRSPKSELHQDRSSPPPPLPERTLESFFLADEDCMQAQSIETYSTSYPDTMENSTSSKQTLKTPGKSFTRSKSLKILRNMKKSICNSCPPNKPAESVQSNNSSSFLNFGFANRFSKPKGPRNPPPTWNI

[15] = target: Caspase-8 (Homo sapiens, UniProt Q14790); assay: caspase-8 inhibition counter-screen, dose response, selectivity assay for caspase-6 inhibitor project, biochemical, Z-IETD-R110 fluorescence, cherry-picked samples (AID 743294)
Chain of Caspase-8 (Q14790 217-374 limits assumed): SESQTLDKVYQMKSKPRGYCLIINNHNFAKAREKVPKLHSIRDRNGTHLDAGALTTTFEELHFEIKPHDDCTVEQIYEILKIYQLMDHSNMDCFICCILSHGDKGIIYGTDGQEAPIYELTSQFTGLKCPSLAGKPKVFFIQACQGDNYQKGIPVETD
Chain of Caspase-8 (Q14790 385-479 limits assumed): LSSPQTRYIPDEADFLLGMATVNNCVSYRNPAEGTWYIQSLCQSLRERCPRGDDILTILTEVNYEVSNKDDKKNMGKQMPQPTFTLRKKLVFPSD

Chain of Genome polyprotein (P29990 2492-3391 limits assumed): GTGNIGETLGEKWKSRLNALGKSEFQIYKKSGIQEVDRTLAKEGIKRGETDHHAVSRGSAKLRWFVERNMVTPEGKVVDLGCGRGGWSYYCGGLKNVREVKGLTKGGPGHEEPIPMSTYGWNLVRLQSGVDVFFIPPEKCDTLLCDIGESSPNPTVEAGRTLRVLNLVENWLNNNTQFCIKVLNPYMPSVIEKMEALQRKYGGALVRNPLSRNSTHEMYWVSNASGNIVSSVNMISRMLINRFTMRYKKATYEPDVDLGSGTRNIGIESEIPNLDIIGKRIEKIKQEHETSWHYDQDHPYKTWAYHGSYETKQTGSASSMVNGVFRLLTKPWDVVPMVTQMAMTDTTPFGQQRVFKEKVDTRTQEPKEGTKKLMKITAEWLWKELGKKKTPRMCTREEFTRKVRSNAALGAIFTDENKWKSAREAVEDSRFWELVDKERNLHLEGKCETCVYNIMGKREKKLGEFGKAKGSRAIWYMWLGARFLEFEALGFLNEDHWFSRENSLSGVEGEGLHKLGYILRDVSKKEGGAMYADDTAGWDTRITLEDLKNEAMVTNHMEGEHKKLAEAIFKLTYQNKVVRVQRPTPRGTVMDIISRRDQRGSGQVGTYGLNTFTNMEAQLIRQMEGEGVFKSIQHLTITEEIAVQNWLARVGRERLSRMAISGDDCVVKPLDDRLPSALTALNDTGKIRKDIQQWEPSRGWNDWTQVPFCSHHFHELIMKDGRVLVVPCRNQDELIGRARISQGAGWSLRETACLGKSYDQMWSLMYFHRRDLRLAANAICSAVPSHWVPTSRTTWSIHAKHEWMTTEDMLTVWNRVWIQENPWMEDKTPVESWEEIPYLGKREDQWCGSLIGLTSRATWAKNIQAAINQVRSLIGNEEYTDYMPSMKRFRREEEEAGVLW
T1 sequence (P49327 whole entry, the tested form may be a part): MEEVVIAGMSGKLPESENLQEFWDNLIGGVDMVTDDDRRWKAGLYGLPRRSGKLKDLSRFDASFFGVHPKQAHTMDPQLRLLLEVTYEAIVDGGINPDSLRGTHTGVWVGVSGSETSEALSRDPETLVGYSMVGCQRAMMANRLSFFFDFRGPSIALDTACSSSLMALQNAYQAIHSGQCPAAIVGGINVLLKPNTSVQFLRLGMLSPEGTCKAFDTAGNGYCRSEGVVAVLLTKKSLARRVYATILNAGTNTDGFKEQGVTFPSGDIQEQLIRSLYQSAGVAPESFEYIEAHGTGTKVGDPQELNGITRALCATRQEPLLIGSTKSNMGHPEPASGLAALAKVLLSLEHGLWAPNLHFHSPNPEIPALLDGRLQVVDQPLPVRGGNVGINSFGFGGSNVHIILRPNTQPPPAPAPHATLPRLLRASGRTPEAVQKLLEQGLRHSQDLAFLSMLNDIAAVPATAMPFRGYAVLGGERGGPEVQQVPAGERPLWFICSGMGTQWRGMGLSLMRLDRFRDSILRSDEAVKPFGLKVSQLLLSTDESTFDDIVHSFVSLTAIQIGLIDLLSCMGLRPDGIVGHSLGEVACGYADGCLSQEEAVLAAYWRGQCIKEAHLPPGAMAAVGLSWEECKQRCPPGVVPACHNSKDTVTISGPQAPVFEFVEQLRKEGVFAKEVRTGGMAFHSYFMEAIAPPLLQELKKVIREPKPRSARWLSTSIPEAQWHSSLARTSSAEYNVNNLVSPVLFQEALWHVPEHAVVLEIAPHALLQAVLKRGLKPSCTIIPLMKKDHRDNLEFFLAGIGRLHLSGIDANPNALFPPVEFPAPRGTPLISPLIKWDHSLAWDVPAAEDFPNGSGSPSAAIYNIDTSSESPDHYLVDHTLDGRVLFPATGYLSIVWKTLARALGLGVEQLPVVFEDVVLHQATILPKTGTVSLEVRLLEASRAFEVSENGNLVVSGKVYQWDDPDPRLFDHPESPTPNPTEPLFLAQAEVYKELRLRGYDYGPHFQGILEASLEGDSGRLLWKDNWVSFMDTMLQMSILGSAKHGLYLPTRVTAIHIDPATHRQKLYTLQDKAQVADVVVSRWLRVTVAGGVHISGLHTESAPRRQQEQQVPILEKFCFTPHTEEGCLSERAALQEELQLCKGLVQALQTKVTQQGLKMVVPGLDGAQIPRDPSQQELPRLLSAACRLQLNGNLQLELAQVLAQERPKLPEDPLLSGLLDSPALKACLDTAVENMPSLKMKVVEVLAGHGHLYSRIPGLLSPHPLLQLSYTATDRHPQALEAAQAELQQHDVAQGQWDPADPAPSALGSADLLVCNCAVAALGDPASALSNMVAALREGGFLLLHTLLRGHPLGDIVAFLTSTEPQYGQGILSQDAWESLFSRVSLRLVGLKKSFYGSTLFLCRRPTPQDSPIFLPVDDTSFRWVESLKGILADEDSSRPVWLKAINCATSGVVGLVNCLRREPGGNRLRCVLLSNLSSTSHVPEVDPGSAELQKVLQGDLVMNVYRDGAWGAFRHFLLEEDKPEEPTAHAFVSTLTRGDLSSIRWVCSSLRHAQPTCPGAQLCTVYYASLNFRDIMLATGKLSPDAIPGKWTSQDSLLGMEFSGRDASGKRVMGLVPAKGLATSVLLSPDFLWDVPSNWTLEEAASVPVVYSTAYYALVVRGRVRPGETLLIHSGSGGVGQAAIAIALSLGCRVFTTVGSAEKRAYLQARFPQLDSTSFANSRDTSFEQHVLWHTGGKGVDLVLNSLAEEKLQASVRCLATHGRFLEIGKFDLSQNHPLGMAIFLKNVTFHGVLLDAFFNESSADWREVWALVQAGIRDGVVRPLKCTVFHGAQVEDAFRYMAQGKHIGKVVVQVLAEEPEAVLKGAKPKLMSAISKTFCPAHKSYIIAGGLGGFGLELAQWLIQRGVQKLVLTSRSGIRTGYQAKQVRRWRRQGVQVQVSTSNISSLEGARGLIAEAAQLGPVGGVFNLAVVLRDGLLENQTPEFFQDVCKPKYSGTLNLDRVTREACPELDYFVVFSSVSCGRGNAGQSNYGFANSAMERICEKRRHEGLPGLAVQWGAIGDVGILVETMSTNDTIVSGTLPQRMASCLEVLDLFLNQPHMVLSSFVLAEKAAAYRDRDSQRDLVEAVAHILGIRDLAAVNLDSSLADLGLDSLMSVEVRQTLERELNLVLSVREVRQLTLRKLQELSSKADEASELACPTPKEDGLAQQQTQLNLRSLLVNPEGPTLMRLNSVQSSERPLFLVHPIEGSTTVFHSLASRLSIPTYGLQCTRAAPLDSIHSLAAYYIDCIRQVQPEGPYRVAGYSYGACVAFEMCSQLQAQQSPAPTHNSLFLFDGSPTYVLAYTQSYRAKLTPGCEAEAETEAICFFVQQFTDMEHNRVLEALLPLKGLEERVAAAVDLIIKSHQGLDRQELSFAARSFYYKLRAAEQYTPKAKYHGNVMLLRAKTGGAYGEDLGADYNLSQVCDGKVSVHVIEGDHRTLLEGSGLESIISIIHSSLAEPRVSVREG
T3 sequence (P41145 whole entry, the tested form may be a part): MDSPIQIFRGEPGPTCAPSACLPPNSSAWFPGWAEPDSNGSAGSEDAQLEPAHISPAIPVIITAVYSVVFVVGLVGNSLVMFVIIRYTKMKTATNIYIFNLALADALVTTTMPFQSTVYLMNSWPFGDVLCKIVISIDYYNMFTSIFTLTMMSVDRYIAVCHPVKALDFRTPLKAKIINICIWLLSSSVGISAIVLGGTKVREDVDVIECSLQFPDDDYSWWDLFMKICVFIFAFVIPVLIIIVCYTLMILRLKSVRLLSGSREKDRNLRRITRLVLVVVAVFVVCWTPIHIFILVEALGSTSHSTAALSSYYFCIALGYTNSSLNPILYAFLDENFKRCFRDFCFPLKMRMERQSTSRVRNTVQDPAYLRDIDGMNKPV
Chain of Small ubiquitin-related modifier 1 (P63165 whole entry): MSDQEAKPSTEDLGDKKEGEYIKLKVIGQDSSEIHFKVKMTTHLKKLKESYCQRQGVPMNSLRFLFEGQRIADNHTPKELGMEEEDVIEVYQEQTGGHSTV
Chain of Dual specificity protein phosphatase 3 (P51452 whole entry): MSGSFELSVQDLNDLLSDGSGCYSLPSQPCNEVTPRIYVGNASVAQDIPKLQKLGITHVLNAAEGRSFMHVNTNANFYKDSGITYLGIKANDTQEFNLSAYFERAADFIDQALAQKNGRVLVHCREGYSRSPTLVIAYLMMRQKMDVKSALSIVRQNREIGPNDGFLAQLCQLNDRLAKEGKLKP
Chain of Beta Lactamase (Q932Y6 whole entry): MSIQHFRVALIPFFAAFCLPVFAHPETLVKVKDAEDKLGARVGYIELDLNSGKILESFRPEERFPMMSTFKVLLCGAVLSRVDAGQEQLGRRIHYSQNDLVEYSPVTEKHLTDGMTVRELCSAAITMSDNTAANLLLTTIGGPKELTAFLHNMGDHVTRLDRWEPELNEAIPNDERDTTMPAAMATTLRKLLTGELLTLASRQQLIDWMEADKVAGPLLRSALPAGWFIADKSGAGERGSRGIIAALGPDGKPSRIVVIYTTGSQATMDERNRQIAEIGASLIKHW

| SMILES | IC50 [1] | IC50 [2] | IC50 [3] | IC50 [4] | EC50 [5] | CC50 [6] | IC50 [7] | IC50 [8] | IC50 [9] | IC50 [10] | IC50 [11] | IC50 [12] | IC50 [13] | IC50 [14] | AC50 [15] |
| --- | --- | --- | --- | --- | --- | --- | --- | --- | --- | --- | --- | --- | --- | --- | --- |
| O=[N+]([O-])c1c(Nc2ccccc2O)cc(Cl)c2nonc12 | 14.6 µM (active) | 9.7 µM (active) | 7.45 µM (active) | 13.2 µM (active) | 3.68 µM (active) | 12.2 µM (active) | 11.5 µM | 1.36 µM (active) | 18.4 µM (inactive) | 2.89 µM (active) | – | – | – | – | – |
| O=S(=O)(O)c1cc(O)c2cc(Nc3ccccc3)ccc2c1 | – | 19.4 µM (active) | – | – | – | – | – | – | – | – | 37.9 µM (active) | 0.485 µM (active) | > 66.6 µM (inactive) | 5.09 µM (active) | > 70 µM (inactive) |
